# Columns and labels:
# Assay type in all cases: in vivo
# Septoria tritici [1] = assay: Greenhouse, Septoria tritici on wheat, 1 day residual; details: Example 9
# Method: (§1) The trials are carried out under greenhouse (Examples 1 to 32) or field conditions (Examples 33 to 40) in residual or curative applications. The fungicides are applied in single treatments, or in a combination comprising an azolopyrimidine of formula I and a compound selected from the classes (A), (B) and (C) as defined above. The compounds are applied in form of an aqueous spray mix obtained from a concentrated formulation or the technical material.
# (§2) 1. Seed is planted in 6 cm diameter plastic pots and maintained in the greenhouse.
# (§3) 2. When the primary leaf is fully expanded in the case of cereals or several leaves are present in the case of dicots, formulated test compounds are sprayed with a three nozzle overhead fungicide sprayer to near run-off. Alternatively, a single nozzle overhead track sprayer is used for application of the compounds to cereals at a rate of 200 l/ha. Plants are then allowed to air-dry.
# (§4) 3. Inoculation precedes treatment in the case of curative evaluations and follows treatment in case of residual evaluations. For inoculation of powdery mildew disease, plants are set up on greenhouse benches with bottom watering mats and inoculated by dusting them with conidia from infected plants. Between inoculation and treatment for curative evaluations and between treatment and inoculation for residual evaluations, plants are maintained in the greenhouse with bottom watering.
# (§5) For inoculation of non-powdery mildew diseases, an aqueous spore suspension of the pathogen is applied to the plant and the plants are kept 1-2 days in a moist infection chamber before being returned to the greenhouse where they are maintained by bottom watering.
# (§6) 4. Disease on the foliage as percent leaf area with disease symptoms/signs is evaluated about 7 days after inoculation. In the case of wheat, the tips and bases of the leaves are excluded from the evaluation. [formula]
# (§7) 1. Technical compounds are formulated in a solvent/surfactant system consisting of 5% acetone and 0.05% Tween 20 in deionized water. Compounds are dissolved in acetone prior to addition of the water; the Tween 20 can be added through either the acetone or the water. Dilutions are made using the solvent/surfactant system. Formulated compounds are prepared using deionized water.
# (§8) 2. Two kinds of controls are included: Plants treated with the solvent/surfactant solution and inoculated (Solvent Blank). Untreated plants which are inoculated (Inoculated Control).
# (§9) Assessments of the diseases took place at the indicated day after the application of the compounds. Per cent infected leaf area infected was evaluated. The efficacy of the compounds/compounds mixtures to control the diseases was calculated by using the formula given above under item 4: […]
# (§10) Synergy was calculated using the % disease control values of specific treatments for the two COLBY formula given hereinabove
# Fungicidal efficacy of the mixture of Azolopyrimidine C+metconazole (1 day residual) against Septoria tritici on wheat The tank mix was obtained from a SC formulation containing 100 g Azoplopyrimidine C per liter and an EC containing 100 g metconazole per liter.
# Rhynchosporium secalis = assay: Greenhouse, Rhynchosporium secalis on barley, 1 day residual; details: Example 8; dose rate 100 ppm
# Method: as §1, §2
# 2. When the primary leaf is fully expanded in the case of cereals or several leaves are present in the case of dicots, formulated test compounds are sprayed with a three nozzle overhead fungicide sprayer to near run-off. […]
# 4. Disease on the foliage as percent leaf area with disease symptoms/signs is evaluated about 7 days after inoculation. […]
# as §9
# Synergy was calculated using the % disease control values of specific treatments for the two COLBY formula given hereinabove […]
# Septoria tritici [2] = assay: Field test, Septoria tritici on wheat
# Method: as §1
# For the field study formulated Azolopyrimidine A, B or C and formulated compounds from the classes (A), (B) and (C) were used.
# as §9, §10
# The compounds are applied according to good agricultural practice in the form of an aqueous spray mix obtained from a concentrated formulation or the technical material at a rate of 400 l/ha. The disease control is evaluated according to the formula given for the greenhouse tests.
# Fungicidal efficacy of the mixture of Azolopyrimidine C+metconazole in the field against Septoria tritici on wheat The tank mix was obtained from an EC formulation containing 150 g Azolopyrimidine C per liter and a SL formulation containing 60 g metconazole per liter. The observed and expected efficacies with different rates are given in Table XXXIVa (19 days after application) and Table XXXIVb (25 days after application):
# Fungicidal efficacy of the mixture of (S)-Azolopyrimidine C+kresoxim methyl in the field against Septoria tritici on wheat The tank mix was obtained from a SC formulation containing 100 g (S)-Azolopyrimidine C per liter and a WG formulation containing 500 g kresoxim methyl per kg. The observed and expected efficacies with different rates are given in Tables XXXVa (7 days after application), XXXVb (22 days after application), XXXVc (34 days after application), and XXXVd (41 days after application):
# Fungicidal efficacy of the mixture of Azolopyrimidine A and different cereal fungicides the field against Septoria tritici on wheat 15 days after application The tank mix was obtained from an SC formulation containing 100 g Azolopyrimidine A per liter and commercially available formulations of metconazole, epoxiconazole or propiconazole, respectively.
# Blumeria graminis [3] = assay: Greenhouse, Blumeria graminis on wheat, 4 days residual; details: Example 30
# Method: as §1, §2, §3, §4, §6, §7, §8, §9, §10
# Fungicidal efficacy of the mixture of (S)-Azolopyrimidine C in admixture with Azoxystrobin or Trifloxystrobin (4 days residual) against Blumeria graminis on wheat. The tank mixes were obtained from technical material of (S)-Azolopyrimidine C and Azoxystrobin or Trifloxystrobin.
# Puccinia recondita = assay: Greenhouse, Puccinia recondita on wheat, 4 days residual; details: Example 31
# Method: as §1, §2, §3, §4, §5, §6, §7, §8, §9, §10
# Fungicidal efficacy of the mixture of (S)-Azolopyrimidine C in admixture with Azoxystrobin or Trifloxystrobin (4 days residual) against Puccinia recondita on wheat. The tank mixes were obtained from technical material of (S)-Azolopyrimidine C and Azoxystrobin or Trifloxystrobin.
# Blumeria graminis [4] = assay: Greenhouse, Blumeria graminis on wheat, 2 days curative; details: Example 27
# Method: as §1, §2, §3, §4, §6, §7, §8, §9, §10
# Fungicidal efficacy of the mixture of (S)-Azolopyrimidine C in admixture with Azoxystrobin or Trifloxystrobin (2 days curative) against Blumeria graminis on wheat. The tank mixes were obtained from technical material of (S)-Azolopyrimidine C and Azoxystrobin or Trifloxystrobin.
compound,measurement,setting,value
"CC(Nc1c(-c2c(F)cc(F)cc2F)c(Cl)nc2ncnn12)C(F)(F)F (stereo not shown) [Azolopyrimidine C, 5-chloro-6-(2,4,6-trifluorophenyl)-7-(1,1,1-trifluoroprop-2-ylamino)-[1,2,4]triazolo[1,5-a]pyrimidine]",Observed Efficacy,Septoria tritici [1]; dose rate 2 ppm,0%
same,Observed Efficacy,Septoria tritici [1]; dose rate 5 ppm,0%
same,Observed Efficacy,Septoria tritici [1]; dose rate 8 ppm,0%
same,Observed Efficacy,Septoria tritici [1]; dose rate 25 ppm,68%
same,Observed Efficacy,Septoria tritici [1]; dose rate 40 ppm,91%
same,Observed Efficacy,Rhynchosporium secalis,15%
same,Observed Efficacy,"Septoria tritici [2]; Example 34, 19 days after application, dose rate 25 g/ha",48%
same,Observed Efficacy,"Septoria tritici [2]; Example 34, 25 days after application, dose rate 50 g/ha",61%
same,Observed Efficacy,"Septoria tritici [2]; Example 34, 25 days after application, dose rate 75 g/ha",13%
"5-chloro-6-(2,4,6-trifluorophenyl)-7-(1,1,1-trifluoroprop-2-ylamino)-[1,2,4]triazolo[1,5-a]pyrimidine [(S)-Azolopyrimidine C]",Observed Efficacy,Blumeria graminis [3]; dose rate 3.1 ppm,0%
same,Observed Efficacy,Blumeria graminis [3]; dose rate 6.3 ppm,0%
same,Observed Efficacy,Blumeria graminis [3]; dose rate 12.5 ppm,3%
same,Observed Efficacy,Blumeria graminis [3]; dose rate 25 ppm,11%
same,Observed Efficacy,Blumeria graminis [3]; dose rate 50 ppm,34%
same,Observed Efficacy,Puccinia recondita; dose rate 3.1 ppm,0%
same,Observed Efficacy,Puccinia recondita; dose rate 6.3 ppm,9%
same,Observed Efficacy,Puccinia recondita; dose rate 12.5 ppm,16%
same,Observed Efficacy,Puccinia recondita; dose rate 25 ppm,27%
same,Observed Efficacy,Puccinia recondita; dose rate 50 ppm,50%
same,Observed Efficacy,Blumeria graminis [4]; dose rate 1.6 ppm,0%
same,Observed Efficacy,Blumeria graminis [4]; dose rate 3.1 ppm,0%
same,Observed Efficacy,Blumeria graminis [4]; dose rate 6.3 ppm,10%
same,Observed Efficacy,Blumeria graminis [4]; dose rate 12.5 ppm,40%
same,Observed Efficacy,Blumeria graminis [4]; dose rate 25 ppm,61%
same,Observed Efficacy,Blumeria graminis [4]; dose rate 50 ppm,81%
same,Observed Efficacy,"Septoria tritici [2]; (S)-Azolopyrimidine C 75 g/ha alone, 41 days after application, field, wheat",92
same,Observed Efficacy,"Septoria tritici [2]; Example 35, 7 days after application, dose rate 25 g/ha",34%
same,Observed Efficacy,"Septoria tritici [2]; Example 35, 22 days after application, dose rate 25 g/ha",74%
same,Observed Efficacy,"Septoria tritici [2]; Example 35, 22 days after application, dose rate 100 g/ha",87%
same,Observed Efficacy,"Septoria tritici [2]; Example 35, 34 days after application, dose rate 50 g/ha",53%
same,Observed Efficacy,"Septoria tritici [2]; Example 35, 34 days after application, dose rate 100 g/ha",70%

# Source: patent US20030206968A1, “Fungicidal mixtures” (priority 1999, published 2003)
